pIC50: −log10 of the molar value. Counter-ions that a name gives are not always drawn.
Key:
IKKε = target: T1, IKKε (Homo sapiens, UniProt Q14164); experiment: IKKe Biochemical Assay; details: read-out: IKKε IC50
T1 sequence (Q14164 1-716): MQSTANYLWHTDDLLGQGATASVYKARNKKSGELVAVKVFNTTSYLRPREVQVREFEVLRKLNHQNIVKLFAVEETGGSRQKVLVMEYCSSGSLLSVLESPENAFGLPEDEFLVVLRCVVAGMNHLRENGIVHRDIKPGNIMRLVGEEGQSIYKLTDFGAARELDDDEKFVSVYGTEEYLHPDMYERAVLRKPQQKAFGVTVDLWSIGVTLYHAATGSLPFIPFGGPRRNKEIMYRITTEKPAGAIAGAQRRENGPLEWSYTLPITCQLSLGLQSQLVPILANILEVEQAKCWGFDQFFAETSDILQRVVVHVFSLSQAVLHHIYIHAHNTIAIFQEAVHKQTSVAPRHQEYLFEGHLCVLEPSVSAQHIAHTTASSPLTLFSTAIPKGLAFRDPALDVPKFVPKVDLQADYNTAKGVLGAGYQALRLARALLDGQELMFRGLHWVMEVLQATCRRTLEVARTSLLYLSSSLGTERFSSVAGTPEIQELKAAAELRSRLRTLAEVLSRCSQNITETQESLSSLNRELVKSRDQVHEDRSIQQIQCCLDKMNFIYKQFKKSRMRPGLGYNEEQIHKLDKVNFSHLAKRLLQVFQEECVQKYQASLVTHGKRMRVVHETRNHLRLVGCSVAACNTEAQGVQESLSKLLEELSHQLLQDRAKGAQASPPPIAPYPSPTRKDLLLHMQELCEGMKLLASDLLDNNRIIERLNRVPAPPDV
Method in brief: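 Recombinant IKKε and substrate were incubated with compound (10-point 1:4 series, top 30 uM final, 1% DMSO) for 90 min at 25° C, then stopped. Substrate-to-product conversion was read by LabChip microfluidic mobility shift; 10 uM staurosporine served as full-inhibition wells.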

[1] = system: phosphorylation of the IRF-3 protein in MDA-MB-468 cells; experiment: pIRF3 immunocytochemistry cell based assay; details: Homo sapiens; MDA-MB-468 cells, Poly(I:C) stimulation; read-out: pIRF3 IC50
Method in brief: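 MDA-MB-468 cells got compounds (10-point, 3-fold from 10 uM) for 1 h at 37 °C, then 10 ug/ml Poly(I:C) for 2 h. Fixed, permeabilized cells were immunostained for pIRF3 with AlexaFluor488 and counterstained with PI. % phosphorylation was read by laser scanning cytometry, and IC50 curves were fitted.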

TBK1 = target: T2, TBK1 (Homo sapiens, UniProt Q9UHD2); experiment: TBK Biochemical Assay; details: read-out: TBK1 IC50
T2 sequence (Q9UHD2 1-729): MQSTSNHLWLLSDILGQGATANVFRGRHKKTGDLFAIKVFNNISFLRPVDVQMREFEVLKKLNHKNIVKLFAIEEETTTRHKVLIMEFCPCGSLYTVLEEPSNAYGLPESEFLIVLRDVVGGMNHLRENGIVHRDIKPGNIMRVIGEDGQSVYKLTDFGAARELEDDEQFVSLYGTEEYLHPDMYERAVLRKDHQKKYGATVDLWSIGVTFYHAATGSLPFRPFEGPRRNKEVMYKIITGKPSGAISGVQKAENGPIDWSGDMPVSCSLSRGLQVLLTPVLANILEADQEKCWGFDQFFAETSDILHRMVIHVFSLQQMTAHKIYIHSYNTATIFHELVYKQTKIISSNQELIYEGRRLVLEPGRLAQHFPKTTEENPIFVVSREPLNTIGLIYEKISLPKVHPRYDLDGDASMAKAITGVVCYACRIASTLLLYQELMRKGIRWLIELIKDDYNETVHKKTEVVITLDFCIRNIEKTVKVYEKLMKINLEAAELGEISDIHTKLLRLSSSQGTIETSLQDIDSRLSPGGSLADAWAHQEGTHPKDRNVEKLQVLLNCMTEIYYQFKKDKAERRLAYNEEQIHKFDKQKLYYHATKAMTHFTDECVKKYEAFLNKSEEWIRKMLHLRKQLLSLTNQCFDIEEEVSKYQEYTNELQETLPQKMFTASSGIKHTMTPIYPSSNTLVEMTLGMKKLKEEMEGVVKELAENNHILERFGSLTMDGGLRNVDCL
Method in brief: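 TBK1 enzyme and substrate incubated with compounds (10-point 1:4 dilution, top 30 uM final, 1% DMSO) for 90 min at 25° C, then stopped. Substrate/product peaks read by microfluidic mobility-shift (Caliper LabChip); 10 uM staurosporine as full-inhibition control.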

| SMILES | pIC50 (IKKε) | pIC50 [1] | pIC50 (TBK1) |
| --- | --- | --- | --- |
| COc1cc(C(=O)N2C[C@@H]3C[C@H]2CN3C)ccc1-c1cc2nccc(-c3ccc(NC4CCOCC4)c(C#N)c3)c2o1 [Compound 515] | > 7.00 | > 7.00 | > 7.00 |
| COc1cc(C(=O)N2CC3CCC(C2)O3)cnc1-c1cc2nccc(-c3ccc(OC4CCOCC4)c(C#N)c3)c2o1 [Compound 411, 5-[2-[3-methoxy-5-([8-oxa-3-azabicyclo[3.2.1]octan-3-yl]carbonyl)pyridin-2-yl]furo[3,2-b]pyridin-7-yl]-2-(oxan-4-yloxy)benzonitrile hydrochloride] | > 7.00 | 6.00 to 7.00 | > 7.00 |
| COc1cc(C(=O)N(C)C)cnc1-c1cc2nccc(-c3ccc(OC4CCNC4)c(C#N)c3)c2o1 (stereo not drawn) [Compound 487, 6-{7-[3-Cyano-4-(pyrrolidin-3-yloxy)-phenyl]-furo[3,2-b]pyridin-2-yl}-5-methoxy-N,N-dimethyl-nicotinamide] | 6.00 to 7.00 | 6.00 to 7.00 | 6.00 to 7.00 |
| COc1cc(C(=O)N(C)C)ccc1-c1cc2nccc(-c3ccc(N4CCC(F)C4)c(C#N)c3)c2o1 (stereo not drawn) [Compound 35] | > 7.00 | 6.00 to 7.00 | > 7.00 |
| COc1cc(C(=O)N2CC3CC2CO3)ccc1-c1cc2nccc(-c3ccc(OC4CCOCC4)c(C#N)c3)c2o1 (stereo not drawn) [Compound 1, 5-{2-[2-Methoxy-4-(2-oxa-5-aza-bicyclo[2.2.1]heptane-5-carbonyl)-phenyl]-furo[3,2-b]pyridin-7-yl}-2-(tetrahydro-pyran-4-yloxy)-benzonitrile] | > 7.00 | > 7.00 | > 7.00 |
| N#Cc1cc(-c2ccnc3cc(-c4cnn(C5COC5)c4)oc23)ccc1OC1CCOCC1 [Compound 138] | > 7.00 | 5.30 to 6.00 | > 7.00 |
| COc1cc(C(=O)N2CCC(CO)C2)ccc1-c1cc2nccc(-c3ccc(NC4CCOCC4)c(C#N)c3)c2o1 (stereo not drawn) [Compound 91, 5-{2-[4-(3-Hydroxymethyl-pyrrolidine-1-carbonyl)-2-methoxy-phenyl]-furo[3,2-b]pyridin-7-yl}-2-(tetrahydro-pyran-4-ylamino)-benzonitrile] | > 7.00 | 6.00 to 7.00 | > 7.00 |
| COc1cc(C(=O)N2CC3CCC2CN3C)ccc1-c1cc2nccc(-c3ccc(OC4CCOCC4)c(C#N)c3)c2o1 (stereo not drawn) [Compound 503] | > 7.00 | > 7.00 | > 7.00 |
| COc1cc(C(=O)N(C)C)ccc1-c1cc2ncc(F)c(-c3ccc(OC4CCOCC4)c(C#N)c3)c2o1 [Compound 298, 4-[7-[3-cyano-4-(oxan-4-yloxy)phenyl]-6-fluorofuro[3,2-b]pyridin-2-yl]-3-methoxy-N,N-dimethylbenzamide] | > 7.00 | 6.00 to 7.00 | > 7.00 |
| COc1cc(C(=O)N2CC[C@H](O)C2)ccc1-c1cc2nccc(-c3ccc(OC4CCOCC4)c(C#N)c3)c2o1 [Compound 14, 5-{2-[4-((S)-3-Hydroxy-pyrrolidine-1-carbonyl)-2-methoxy-phenyl]-furo[3,2-b]pyridin-7-yl}-2-(tetrahydro-pyran-4-yloxy)-benzonitrile] | > 7.00 | > 7.00 | > 7.00 |
| COc1cc(C(=O)NC2CN3CCC2CC3)cnc1-c1cc2nccc(-c3ccc(N4CCC(F)C4)c(C#N)c3)c2o1 (stereo not drawn) [Compound 438, N-[1-azabicyclo[2.2.2]octan-3-yl]-6-[7-[3-cyano-4-(3-fluoropyrrolidin-1-yl)phenyl]furo[3,2-b]pyridin-2-yl]-5-methoxypyridine-3-carboxamide] | > 7.00 | 6.00 to 7.00 | > 7.00 |
| COc1cc(C(=O)NCCC2CCNCC2)ccc1-c1cc2nccc(-c3ccc(OC4CCOCC4)c(C#N)c3)c2o1 [Compound 118, 4-{7-[3-Cyano-4-(tetrahydro-pyran-4-yloxy)-phenyl]-furo[3,2-b]pyridin-2-yl}-3-methoxy-N-(2-piperidin-4-yl-ethyl)-benzamide hydrochloride] | > 7.00 | 6.00 to 7.00 | > 7.00 |
| COc1cc(C(=O)N(C)C)ccc1-c1cc2nccc(-c3ccc(N4CC[C@@H](F)C4)c(C#N)c3)c2o1 [Compound 57, 4-{7-[3-Cyano-4-((R)-3-fluoro-pyrrolidin-1-yl)-phenyl]-furo[3,2-b]pyridin-2-yl}-3-methoxy-N,N-dimethyl-benzamide] | > 7.00 | 6.00 to 7.00 | > 7.00 |
| COc1cc(C(=O)N2CC[C@@H](N(C)C)C2)ccc1-c1cc2nccc(-c3ccc(N4CC[C@H](F)C4)c(C#N)c3)c2o1 [Compound 33, 5-{2-[4-((R)-3-Dimethylamino-pyrrolidine-1-carbonyl)-2-methoxy-phenyl]-furo[3,2-b]pyridin-7-yl}-2-((S)-3-fluoro-pyrrolidin-1-yl)-benzonitrile] | > 7.00 | 6.00 to 7.00 | > 7.00 |
| COc1cc(C(=O)N(C)C)ccc1-c1cc2nccc(-c3ccc(OCC4CCNCC4)c(C#N)c3)c2o1 [Compound 155, 4-{7-[3-Cyano-4-(piperidin-4-ylmethoxy)-phenyl]-furo[3,2-b]pyridin-2-yl}-3-methoxy-N,N-dimethyl-benzamide] | > 7.00 | 6.00 to 7.00 | > 7.00 |
| COc1cc(C(=O)N(C)OC)ccc1-c1cc2nccc(-c3ccc(OC4CCOCC4)c(C#N)c3)c2o1 [Compound 53, 4-{7-[3-Cyano-4-(tetrahydro-pyran-4-yloxy)-phenyl]-furo[3,2-b]pyridin-2-yl}-3,N-dimethoxy-N-methyl-benzamide] | > 7.00 | 6.00 to 7.00 | > 7.00 |
| COc1cc(C(=O)N(C)C)ccc1-c1cc2nccc(-c3ccc(OC4CCCOC4)c(C#N)c3)c2o1 (stereo not drawn) [Compound 105, 4-{7-[3-Cyano-4-(tetrahydro-pyran-3-yloxy)-phenyl]-furo[3,2-b]pyridin-2-yl}-3-methoxy-N,N-dimethyl-benzamide] | > 7.00 | 6.00 to 7.00 | > 7.00 |
| COc1cc(C(=O)NC(C)(C)CCN(C)C)ncc1-c1cc2nccc(-c3ccc(NC4CCOCC4)c(C#N)c3)c2o1 [Compound 423, 5-(7-[3-cyano-4-[(oxan-4-yl)amino]phenyl]furo[3,2-b]pyridin-2-yl)-N-[4-(dimethylamino)-2-methylbutan-2-yl]-4-methoxypyridine-2-carboxamide] | > 7.00 | 6.00 to 7.00 | > 7.00 |
| COc1cc(C(=O)NC2CCN(C)C2)ccc1-c1cc2nccc(-c3ccc(OC4CCOCC4)c(C#N)c3)c2o1 (stereo not drawn) [Compound 64, 4-{7-[3-Cyano-4-(tetrahydro-pyran-4-yloxy)-phenyl]-furo[3,2-b]pyridin-2-yl}-3-methoxy-N-(1-methyl-pyrrolidin-3-yl)-benzamide] | > 7.00 | 6.00 to 7.00 | > 7.00 |
| COc1cc(C(=O)NCC2CCNCC2)ccc1-c1cc2nccc(-c3ccc(OC4CCOCC4)c(C#N)c3)c2o1 [Compound 92, 4-{7-[3-Cyano-4-(tetrahydro-pyran-4-yloxy)-phenyl]-furo[3,2-b]pyridin-2-yl}-3-methoxy-N-piperidin-4-ylmethyl-benzamide hydrochloride] | > 7.00 | 6.00 to 7.00 | > 7.00 |

Source: patent US10428080B2, “TBK/IKK inhibitor compounds and uses thereof” (Merck Patent GmbH, priority 2015, dated 2019)
